Measured values: paper PMC9383034, “Impact of microcin J25 on the porcine microbiome in a continuous culture model” (Frontiers in Microbiology, 2022)
Bridge positions count the residues as written; N and C are the ends. Ends that are not written are not given here.

Experiments:
[1] = tested on: swine colonic microbiota metabolome; test: LC-MS metabolomic profiling of swine colonic microbiota in PolyFermS model; format: cell-based; conditions: for impact on the metabolome of the swine colonic microbiota (LC-MS profiles, PCA): PolyFermS pellet extracts, 0.4 mM MccJ25, 4 mM reuterin, 0.6 mM rifampicin, MccJ25 effect decreased with time, rifampicin effect increased
Experimental: (§1) The in vitro fermentation model of the swine colon has been described elsewhere in detail ([Tanner et al., 2014]) and in our previous study ([Naimi et al., 2020]). […] Seeded with 30% (v/v) swine fecal beads, the inoculum reactor IR (useful volume of 250 mL) was fed fresh nutrient medium continuously (Figure 1A). Effluent from IR was used to continuously inoculate at 10% (v/v) the test reactors TR1 and TR2, which also received 90% (v/v) fresh medium (Figure 1B). The feed rate of the three reactors controlled using peristaltic pumps (model 120U, Watson-Marlow, Falmouth, Cornwall, United Kingdom) was set at 27 mL/h for a mean retention time in IR and TRs of 9 h. For the first 3 days, the IR was run in repeated-batch mode, the medium replaced every 12 h with fresh medium, in order to colonize fecal bead. Continuous feeding was then started, followed by 12 days of stabilization before connection to TR1 and TR2. Continuous culture was split into three periods: stabilization, treatment and wash. Conditions were kept constant in IR to assess the temporal stability of the system without any manipulation during the entire fermentation, while TR1 and TR2 were subjected to treatments for various periods. Between each period, culture was flushed from TR1 and TR2 as described previously ([Tanner et al., 2014]). TR1 and TR2 were subjected to a washing procedure with 10% chlorine solution to decontaminate and remove any historical effect of the previous periods. Briefly, TR1 and TR2 were disconnected from the IR, the entire medium was removed and reactors were filled with 10% freshly prepared chlorine solution. After stirring for 1 h, the reactors were rinsed twice by adding sterile distilled water and stirring for another hour. After complete removal of water and chlorine residues, reactors were filled with sterile fresh nutritive medium and reconnected to the IR. After each flush, they were stabilized for 3 days until a steady state was reached before starting the next treatment period.
Resulting networks were visualized using Cytoscape 3.7.1.

swine colonic microbiota = test: PMA-qPCR counts of bacterial groups in PolyFermS swine colon fermentation model; format: cell-based; conditions: for impact on total bacterial counts: PolyFermS, with Salmonella Newport 10^7 cfu/mL, 0.4 mM MccJ25 or 4 mM reuterin, 24 h
Experimental: as §1
The inhibitory activity of MccJ25, reuterin and rifampicin against Salmonella Newport and the major bacterial species constituting the swine colonic microbiota were quantified using propidium-monoazide-coupled quantitative polymerase chain reaction (PMA-qPCR). Samples collected from the reactors were treated with propidium monoazide (PMA dye, Biotium, Inc., Hayward, CA, United States) for viable bacteria counts as described previously ([Fernandez et al., 2016]). […]
The quantitative PCR (qPCR) was performed in MicroAmp® Fast Optical 96-Well Reaction Plates with Barcode (Life Technologies Inc., Burlington, ON, Canada) on an ABI 7500 Real-Time PCR System (Applied Biosystems, Streetsville, ON, Canada). Each sample was analyzed in duplicate. […]

[2] = tested on: porcine intestinal microbiota; test: 16S rRNA gene amplicon sequencing of microbiota in PolyFermS model (alpha/beta diversity, taxonomy); format: cell-based, swine; conditions: for change in microbial composition (PCoA of Bray Curtis similarity matrix, PERMANOVA) compared to Salmonella alone: 24 h fermentation, two replicates F1 and F2, 0.4 mM MccJ25, 4 mM reuterin, p value 0.001 for significant differences; for change in microbial composition (PCoA of Bray Curtis similarity matrix, PERMANOVA) compared to Salmonella alone / change in alpha diversity (Shannon index and number of observed ASVs): 0.6 mM rifampicin; for change in alpha diversity (Shannon index and number of observed ASVs): rifampicin effect from the 8-h time point until end of fermentation, 0.4 mM MccJ25, 4 mM reuterin
Experimental: as §1
The microbial community at different time points along the fermentation was analyzed by Illumina next-generation 16S rRNA gene amplicon sequencing. Taxonomic analysis were assessed by sequencing the bacterial 16S rRNA gene in the V3-V4 region using the amplification primers 341F (5′-CCTACGGGNGGCWGCAG-3′) and 805R (5′-[…]-3′) adapted to incorporate the transposon-based Illumina Nextera adapters (Illumina, United States) and a sample barcode sequence allowing multiplexed sequencing ([García-López et al., 2020]). High-throughput sequencing was performed at the Institute for Integrative Systems Biology (Université Laval, Québec, Canada) on a MiSeq platform using 2 × 300 bp paired-end sequencing (Illumina, United States). The raw sequence data have been submitted to European Nucleotide Archive (ENA) database with accession number PRJEB52762.
Raw data were processed using the DADA2 R package (version 1.14.1) ([Callahan et al., 2016]) to obtain exact amplicon sequence variants (ASVs) using the metabaRpipe R package^1. Briefly, forward and reverse reads were truncated after 260 and 250 nucleotides, respectively. After truncation, reads with expected error rates higher than three and four for forward and reverse reads, respectively, were removed. After filtering, error rate learning, ASV inference and denoising, reads were merged with a minimum overlap of 15 nucleotides. Chimeric sequences were identified and removed. Taxonomy was assigned to ASVs using DADA2 against SILVA database (v138.1) ([Glöckner et al., 2017]). Phylogenetic relatedness of ASVs, alpha diversity (Observed and Shannon indexes) and beta diversity analyses (Bray Curtis similarity matrix) were performed using the phyloseq R package ([McMurdie and Holmes, 2013]) and the DivComAnalyses packages^2.
The rarefied ASV table was used to calculate richness and diversity indices.

Salmonella Newport = conditions: PolyFermS continuous culture simulating swine proximal colon; ref Naimi et al., 2020; cited from earlier work
From the text: Microcin J25 (MccJ25) is one of the most studied Gram-negative bacteriocins. This 21-amino-acid posttranslationally modified peptide produced by E. coli is a potent inhibitor of Enterobacteriaceae including Salmonella ([Rintoul et al., 2001]). It is a typical lasso peptide ([Arnison et al., 2013]; [Wang and Zhang, 2018]) which is characterized by an 8-residue macrolactam ring that is closed by an isopeptide bond between the N-terminus and the side chain carboxylate of a glutamate at position 8. The ring is threaded by the resulting tail that is locked inside by two bulky amino acid side chains ... || Enumerating specific bacterial groups by PMA-qPCR provided first a global information on the composition of the swine gut microbial community. Rifampicin induced important changes in Bacteroides, Lactobacillaceae and total 16S rRNA gene contents at the end of the colonic fermentation while no major effects were observed when MccJ25 and reuterin were added separately. […] Taxonomically, rifampici ... || Since MccJ25 appears to be a potent inhibitor of Salmonella Newport in the PolyFermS continuous culture model of the porcine proximal colonic microbiome as shown previously ([Naimi et al., 2020]), it should be considered as a potential alternative to antibiotics in pork production. […] This is important since it has been shown that changes in gut microbiota composition are associated with various metabolic disorders and likely subject the ...

[3] = cited from earlier work
From the text: (§2) Microcin J25 (MccJ25) is one of the most studied Gram-negative bacteriocins. This 21-amino-acid posttranslationally modified peptide produced by E. coli is a potent inhibitor of Enterobacteriaceae including Salmonella ([Rintoul et al., 2001]). It is a typical lasso peptide ([Arnison et al., 2013]; [Wang and Zhang, 2018]) which is characterized by an 8-residue macrolactam ring that is closed by an isopeptide bond between the N-terminus and the side chain carboxylate of a glutamate at position 8. The ring is threaded by the resulting tail that is locked inside by two bulky amino acid side chains ...

weaned pigs = conditions: MccJ25 purity above 99%; ref Yu et al., 2017; cited from earlier work
From the text: as §2

[4] = tested on: clinically relevant veterinary multidrug-resistant strains; conditions: highly purified MccJ25; ref Yu et al., 2022; cited from earlier work
From the text: (§3) The widespread use of antibiotics in livestock production has led to the emergence of antibiotic-multiresistant bacteria, which can infect humans via the food chain. The use of antibiotics as growth promoters has been banned outright in several industrialized countries, which has increased the urgency of the search for alternatives. Researchers began decades ago to propose bacteriocins as substitutes. In addition to their natural origin, being mostly indigenous to the gut microbiota, and their potent inhibitory activity, bacteriocins are most often endowed with a narrow spectrum of antibacteri ...

E. coli infection = conditions: highly purified MccJ25; ref Yu et al., 2022; cited from earlier work
From the text: as §3

E. coli = conditions: reuterin 1.3 mM, without affecting other bacterial populations; ref Cleusix et al., 2008; cited from earlier work
Experimental: Enumerating specific bacterial groups by PMA-qPCR provided first a global information on the composition of the swine gut microbial community. Rifampicin induced important changes in Bacteroides, Lactobacillaceae and total 16S rRNA gene contents at the end of the colonic fermentation while no major effects were observed when MccJ25 and reuterin were added separately. […] Taxonomically, rifampici ...

[5] = PolyFermS TR1/TR2, Salmonella Newport 10^7 cfu/mL + 0.6 mM rifampicin, after 12 h, followed by regrowth

Row | Molecule | impact on the metabolome of the swine colonic microbiota (LC-MS profiles, PCA) [1] | change in amino acid levels in microbiota metabolome ([1]; PolyFermS, 0.6 mM rifampicin + Salmonella Newport, extracted ion chromatograms) | reduction of Bacteroides counts (swine colonic microbiota; [5]) | reduction of total cell counts (swine colonic microbiota; [5]) | relative abundance of Escherichia-Shigella (ASV002) ([2]; 0.6 mM rifampicin + Salmonella Newport, at 12 h, enriched from the 8-h time point) | taxonomic change at the phylum level ([2]; 0.6 mM rifampicin + Salmonella Newport, from the 6-h time point, both reactors F1 and F2) | change in microbial composition (PCoA of Bray Curtis similarity matrix, PERMANOVA) compared to Salmonella alone [2] | change in alpha diversity (Shannon index and number of observed ASVs) [2] | inhibitory activity against Salmonella Newport (Salmonella Newport) | metabolomics profile after 24 h treatment ([1]; PolyFermS, 0.4 mM MccJ25 + Salmonella Newport, 24 h) | impact on total bacterial counts (swine colonic microbiota) | stability to denaturing conditions, high temperatures, extreme pHs and certain proteases [3] | effect of supplemented diet on weaned pigs (weaned pigs) | bactericidal activity in vitro [4] | effect on inflammation (E. coli infection) | effect on E. coli population (E. coli)
1 | CO[C@H]1/C=C/O[C@@]2(C)Oc3c(C)c(O)c4c(O)c(c(/C=N/N5CCN(C)CC5)c(O)c4c3C2=O)NC(=O)/C(C)=C\C=C\[C@H](C)[C@H](O)[C@@H](C)[C@@H](O)[C@@H](C)[C@H](OC(C)=O)[C@@H]1C [rifampicin, Rifampicin] | significant effects | increase in the levels of Leu/Ile, Phe, Tyr and Trp amino acids | approximately 1 log | approximately 1 log | more than 44% | increase of the relative abundance of Proteobacteria and Firmicutes phyla | significant differences | significant decrease | inhibits Salmonella growth |  |  |  |  |  |  | 
2 | Microcin J25 (GGAGHVPEYFVGIGTPISFYG; lactam N-8; also: lasso macrolactam, places not given here; UniProt Q9X2V7 38-58, looked up) [MccJ25, 21-amino-acid posttranslationally modified lasso peptide bacteriocin produced by E. coli; 8-residue macrolactam ring closed by isopeptide bond to Glu8] |  |  |  |  |  |  | significant differences | did not induce a remarkable changes | remained potent over 24 h | close to that before treatment | did not induce significant impact | remarkable stability | improve growth performance, and attenuate diarrhea and systematic inflammation | efficient bactericidal activity | decrease inflammation | 
3 | O=CCCO [reuterin, 3-hydroxypropanal] | no impact |  |  |  |  |  | No significant changes | did not induce a remarkable changes | did not inhibit Salmonella Newport |  | did not induce significant impact |  |  |  |  | significantly and selectively decrease E. coli
